The text below walks through data of patent publication EP0642343B1, “Acridine carboxamides for the treatment of cancer” (XENOVA LIMITED, priority 1992, dated 1993).

Where two headings read alike, the source gives them in different places.

Broadly, the IC50 is the midpoint of a concentration-inhibition curve.

Series [1] deals with advanced colon 38 tumours. Kind of series: Tumour growth delay, advanced subcutaneous colon 38 tumours in mice. Type of series: in vivo. The protocol: Colon 38 carcinoma was obtained from the Mason Research Institute (Worchester, MA, USA) and was grown in BDF1 hosts. Tumour fragments (1 mm^3) were implanted subcutaneously in anaesthetised mice. Tumours had grown to the appropriate size 9 days after implantation. A melanoma tumour line (WADH) was developed in the Cancer Research Laboratory. Tumour cells were grown in culture and 1 x 10^6 cells were implanted intradermally into the flank of nude (C57BI/J genetic background) mice. Mice were grown under sterile surroundings until tumours were of appropriate size.
Tumours were measured 3x (colon 38) or 2x (xeno-graft) weekly with callipers and tumour volumes calculated as 0.52a^2b, where a and b were the minor and major tumour axes. Tumour growth delays were measured at a time when tumour volumes of treated and control animals had increased by 4-fold.
The effects of five compounds, • (i) DACA • (ii) N-[2-(dimethylamino)ethyl]-9-methoxyphen-azine-1-carboxamide (compound 28 of J. Med. Chem., 1987, 30, 843-851), • (iii) N-[2-(dimethylamino) ethyl]-2-phenylquino-line-8-carboxamide (compound 6 of J. Med. Chem. 1988, 31, 1048-1052), • (iv) N-[2-(dimethylamino)ethyl]-2-(4-pyridyl)-guinoline-8-carboxamide (compound 18 of J. Med. Chem., 1989, 32, 396-401), and • (v) N-[2-(dimethylamino)ethyl]-9-bromo-dibenzo-[1,4]-dioxin-1-carboxamide (compound 20 of J. Med. Chem. 1992, 35, 258-266) on the growth of advanced colon 38 tumours in mice was investigated by implanting tumour fragments subcutaneously and allowing them to grow until they had reached a diameter of 5-8 mm.

The subject of series [2] is subcutaneous melanoma xenografts growing in nude mice. As to conditions: summary given by Berger et al.; cited from earlier work.
A further series concerns human cell lines. Kind of series: Cytotoxicity under continuous drug exposure, mean over human cell lines. As to conditions: read-out: mean IC50 value for human cell lines. It is filed as cell-based. The protocol: The latter value compared with 2 µM for the 4-pyridyl-quinoline analogue, 0.76 µM for amsacrine, 0.1 µM for the amsacrine analogue 4'-(9-[4-[N-methylcarboxamido]-5-methyl]-acridinylamino)-methanesulphon-m-anisidide ("CI-921") and 81 µM for etoposide.

Another series deals with B1A. Kind of series: Resistance factor, drug-resistant Jurkat leukaemia subline. Type of series: cell-based, human. The protocol: (§1) Tumour cell lines were cultured in 96-well plates. Growth of NCI cell lines was assessed using sulpho-rhodamine B staining (Skehan P., et al., J. Natl. Cancer Inst. 1990, 82, 1107-1112), that of the leukaemia lines with (4,5-dimethylthiazole-2-yl)-2,5-diphenyltetrazolium (MTT) staining (Mosmann T., J. Immun. Methods 1983, 65, 55-63) and that of the primary human tumour material by ^3H-thymidine incorporation (Marshall E.S., et al., J. Natl. Cancer Inst. 1992, 84, 341-344). Primary tumour material was cultured in 96-well plates in which the wells were coated with agarose to inhibit selectively the growth of normal cells. (Marshall E.S., et al., J. Natl. Cancer Inst. 1992, 84, 341-344). Primary cultures were incubated at 37°C in sealed perspex boxes containing a humidified atmosphere of 5% CO2 and 5% O2 in nitrogen for 7 days. 5-Methyl-[^3H]-thymidine (20 Ci.mmol^-1; 0.04 µCi per well), thymidine and 5-fluorodeoxyuridine (each at final concentrations of 0.5 µM) were added in medium to cultures (20 µl per well) 24 h before terminating the cultures. Cells were aspirated on to glass fibre filters using a multiple automated sample harvester (LKB Wallac OY Beta Harvester). The filter discs were washed for 15 seconds with water, dried, and the amount of tritium retained quantified by liquid scintillation.
(§2) IC50 values were defined as in Paull K.D., et al., J. Natl. Cancer Inst. 1989, 81:1088-1092, where growth, as indicated by staining or thymidine incorporation, corresponded to 50% of that of the control cultures. […] Variances of DELTA values were expressed as standard deviations in log10 units. Comparison of DELTA values was made using Pearson correlation coefficients. Resistance factors were defined as the ratios of IC50 values between the resistant line and the parent line. Statistical evaluation was performed either with NCI programmes, with RS/1 software (BBN Research Systems, Cambridge, MA, USA), or with Sigmaplot (Jandel Scientific, San Rafael, CA, USA).
(§3) The effect of DACA on the growth of cultured cells was assessed by continuous drug exposure. […] Four multidrug-resistant cell lines, developed from JL and JB1 by in vitro exposure to increasing concentrations of doxorubicin (LD and B1D) or amsacrine (LA and B1A) (Finlay G.J., et al., J. Natl. Cancer Inst. 1990, 82, 662-667, Snow K., et al., Br. J. Cancer 1991, 63, 17-28) were tested.
(§4) DACA was compared with six other drugs including four topo II poisons, doxorubicin, mitozantrone, etopo-side and amsacrine. […]

The next series has as its system B1D. The description is as above. Type of series: cell-based, human. The procedure:
as §1, §2, §3, §4

A further series concerns LA. The series is described as above. It is filed as cell-based, human. The procedure:
as §1, §2, §3, §4

The next series deals with LD. Described as above. Type of series: cell-based, human. The protocol: as §1, §2, §3, §4
In series [3] the test system is primary human melanoma cultures. Kind of series: cells. Conditions: for IC50: Homo sapiens, read-out: mean IC50. The protocol: Acridine carboxamide hydrochloride, synthesised in the Cancer Research Laboratory (Atwell G.J., et al., J.Med. Chem. 1987, 30, 664-669), and amsacrine isethionate, obtained from the Parke-Davis Division of the Warner-Lambert Company, Ann Arbor, USA, were dissolved in 50% v/v aqueous ethanol to make stock solutions of 2-5 mmol/l and stored at -20°C. Other cytotoxic drugs were available either from the NCI repository (Monks A., et al., J. Natl. Cancer Inst. 1991, 83, 757-766) or were obtained as described in Marshall E.S., et al., J. Natl. Cancer Inst. 1992, 84, 341-344 and Finlay, et al., Eur. J. Cancer din. Oncol. 1986, 22, 655-662. Cell lines were from the NCI repository except for MM-96 (Dr. R. Whitehead, Ludwig Institute, Melbourne, Australia), FME (Dr. K.M. Tveit, Norwegian Radium Hospital, Oslo, Norway) and Jurkat normal and multidrug-resistant lines (Dr. K. Snow and Dr. W. Judd, Department of Cellular and Molecular Biology, University of Auckland). Melanoma tissue was obtained from patients with pathologically confirmed metastatic and recurrent melanomas under Auckland Hospital Ethical Committee guidelines. Cells were released by digestion of tissue (at 50 mg.ml^-1) with collagenase (1 mg.ml^-1) and DNAase (50 µg.ml^-1) with continuous stirring at 37°C for 1 to 2 hours, and cultured as previously described (Marshall E.S., et al., J. Natl. Cancer Inst. 1992, 84, 341-344).
as §1, §2
DACA was also compared in a series of 12 primary melanoma cultures. Tissue was excised from human malignant melanomas and cultured using a modified 96-well assay system in which the cells were cultured on agarose and assayed for proliferation using the ^3H-thymidine incorporation assay as described in Marshall E.S., et al., J. Natl. Cancer Inst. 1992, 84, 341-344.

The test system of series [4] is panel of cell lines encompassing a number of tumour types. In words: NCI cell line panel, growth inhibition by protein staining. It is filed as cell-based. As to conditions: data provided by the National Cancer Institute. The protocol:
as §1, §2

[5] abbreviates: maximum tolerated dose of the comparison drug.
[6] abbreviates: 100mg/kg each injection, ip, 2 doses, 0, 60 min.
[7] abbreviates: B1A (from B1 by exposure to amsacrine), ratio of IC50 resistant line / parent line.
The mark [8] stands for this setting: B1D (from B1 by exposure to doxorubicin), ratio of IC50 resistant line / parent line.
The mark [9] stands for this setting: LA (from L by exposure to amsacrine), ratio of IC50 resistant line / parent line.
Setting [10] is: LD (from L by exposure to doxorubicin), ratio of IC50 resistant line / parent line.
The mark [11] stands for this setting: human, jurkat leukaemia sublines.

Turning to `O=c1[nH]cc(F)c(=O)[nH]1` [5-fluorouracil, reference compound], the Growth delay in series [1] (setting [5]) is reported as 13 days. Moreover, in series [2], the “Percentage of xenografts responding” value was 14%.

`COc1cccc2nc3cccc(C(=O)NCCN(C)C)c3nc12` [(ii), N-[2-(dimethylamino)ethyl]-9-methoxyphen-azine-1-carboxamide]: in series [1] (setting [6]), the “Growth delay (days)” value was 5,5 (2 expts) days.

As to `CN(C)CCNC(=O)c1cccc2ccc(-c3ccccc3)nc12` [(iii), N-[2-(dimethylamino)ethyl]-2-phenylquino-line-8-carboxamide], the “Growth delay” value in series [1] (75mg/kg each injection, ip, 2 doses, 0,60 min) turned out to be 8.5 days.

Take `CN(C)CCNC(=O)c1cccc2ccc(-c3ccncc3)nc12` [(iv), N-[2-(dimethylamino)ethyl]-2-(4-pyridyl)-guinoline-8-carboxamide]: in the series on human cell lines (continuous drug exposure over approx. 5 cell doubling times), the concentration for half-maximal inhibition (IC50) worked out at 2 µM. For the same compound, the “Growth delay” value in [1] (50mg/kg each injection, ip, 2 doses, 0,60 min) is 5 days.

Regarding `CN(C)CCNC(=O)c1cccc2c1Oc1c(Br)cccc1O2` [(v), N-[2-(dimethylamino)ethyl]-9-bromo-dibenzo-[1,4]-dioxin-1-carboxamide], the “Growth delay” value in series [1] (setting [6]) is reported as 7 days.

For the compound `CNC(=O)c1cccc2c(Nc3ccc(NS(C)(=O)=O)cc3OC)c3cccc(C)c3nc12` [CI-921, 4'-(9-[4-[N-methylcarboxamido]-5-methyl]-acridinylamino)-methanesulphon-m-anisidide], in the series with human cell lines, the IC50 is 0.1 µM.

`N.N.[Cl][Pt][Cl]` [Cisplatin]: in [2], the “Percentage of xenografts responding” value was 13%.

With `CN(Cc1cnc2nc(N)nc(N)c2n1)c1ccc(C(=O)N[C@@H](CCC(=O)O)C(=O)O)cc1` [Methotrexate], the “Percentage of xenografts responding” value in [2] is 7%.

Take `CC[C@]1(O)C[C@@H]2CN(CCc3c([nH]c4ccccc34)[C@@](C(=O)OC)(c3cc4c(cc3OC)N(C)[C@H]3[C@@](O)(C(=O)OC)[C@H](OC(C)=O)[C@]5(CC)C=CCN6CC[C@]43[C@@H]65)C2)C1` [Vinblastine]: in series [2], the “Percentage of xenografts responding” value was 10%.

For the compound `CC[C@@]1(O)C(=O)OCc2c1cc1n(c2=O)Cc2cc3ccccc3nc2-1` [camptothecin], the Resistance factors in the series on B1A (setting [7]) came out at 0.48; in the series on B1D (setting [8]), 0.86; in the series on LA (setting [9]), 1.0; with LD (setting [10]), 0.97.

The compound `O=P1(N(CCCl)CCCl)NCCCO1` (centres unmarked) [cyclophosphamide, reference compound] returned a Growth delay in [1] (setting [5]) of 6.5 days. Also, the “Percentage of xenografts responding” value in series [2] was 11%.

On to `COc1cccc2c1C(=O)c1c(O)c3c(c(O)c1C2=O)C[C@@](O)(C(=O)CO)C[C@@H]3O[C@H]1C[C@H](N)[C@H](O)[C@H](C)O1` [doxorubicin], for which the values for the IC50 in [3] and in series [4] were 0.056 µM and 0.14 µM, respectively. Also, the Resistance factors is on record as 11 in the series on B1A (setting [11]), 15 in the series on B1D (setting [11]), 3.8 with LA (setting [11]) and 16 with LD (setting [11]). Besides, the “Percentage of xenografts responding” value in series [2] was 5% (total of 5 studies).

As for `COc1cc([C@@H]2c3cc4c(cc3[C@@H](O[C@@H]3O[C@@H]5CO[C@@H](C)O[C@H]5[C@H](O)[C@H]3O)[C@H]3COC(=O)[C@H]23)OCO4)cc(OC)c1O` [etoposide], the 50% inhibitory concentration (IC50) in the series on human cell lines worked out at 81 µM; in series [3], 2.2 µM; in series [4], 21 µM. In addition, in [3] (human, primary melanoma cultures), the “proportions of cells killed” value is at most 90%. The Resistance factors is 22 in the series on B1A (setting [11]), 83 with B1D (setting [11]), 11 in the series on LA (setting [11]) and 93 with LD (setting [11]). For the same compound, the “Percentage of xenografts responding” value in series [2] is recorded as 0% (2 studies).

With `O=C1c2c(O)ccc(O)c2C(=O)c2c(NCCNCCO)ccc(NCCNCCO)c21` [mitoxantrone], the Resistance factors turned out to be 59 in the series on B1A (setting [7]), 8.4 in the series on B1D (setting [8]), 42 with LA (setting [9]) and 160 in the series with LD (setting [10]).

Turning to `CC[C@]1(O)C[C@H]2CN(CCc3c([nH]c4ccccc34)[C@@](C(=O)OC)(c3cc4c(cc3OC)N(C=O)[C@H]3[C@@](O)(C(=O)OC)[C@H](OC(C)=O)[C@]5(CC)C=CCN6CC[C@]43[C@@H]65)C2)C1` [vincristine], the Resistance factors came to 2.0 with B1A (setting [11]), 10 with B1D (setting [11]), 1.5 with LA (setting [11]) and 3.6 with LD (setting [11]). Besides, the “Percentage of xenografts responding” value in series [2] is reported as 43%.

For Bleomycin, the “Percentage of xenografts responding” value in series [2] was 0%.

Consider Mitomycin C, for which the “Percentage of xenografts responding” value in [2] is 32%.
